Measurements taken from US20160038485A1, “PHASE 2 INDUCERS AND RELATED SIGNALING PATHWAYS PROTECT CARTILAGE AGAINST INFLAMMATION, APOPTOSIS AND STRESS” (THE JOHNS HOPKINS UNIVERSITY, priority 2006, published 2016).

Tested on: T/C28a2 chondrocytic cells
Experiment: DNA microarray analysis of shear-induced mRNA response of chondrocytes
Type: cell-based, human
Settings: Wy14643 10 μM; 20 dyn/cm^2, 48 hours; cDNA microarray
Experimental: (§1) Cell Culture and Shear Stress Exposure: Human T/C28a2 chondrocytic cells were grown (37° C., 5% CO2) in 1:1 Ham's F-12/DMEM (Biowhittaker) supplemented with 10% FBS. Prior to shear exposure, T/C28a2 cells were incubated for 24 hours in serum-free medium containing 1% Nutridoma-SP (Roche), a low-protein serum replacement that maintains chondrocyte phenotype. Primary HUVECs were cultured as described (Goldring, M. B., 2004). T/C28a2 cells were exposed to shear stress in media containing 1% Nutridoma by use of a parallel-plate flow chamber with a recirculating flow loop (37° C., 5% CO2) (10). HUVECs were treated similarly by circulating media supplemented with 10% FBS.
Microarray Hybridization and Analysis: Cy-3- and Cy-5-labeled probes were mixed, dried, resuspended in hybridization buffer (50% formamide, 10×SSC, 0.2% SDS, COT-I DNA, Poly(A)-DNA), and denatured. The probes were added to microarray slides printed with a set of 32,448 or 39,936 expressed sequence tags (ESTs), allowed to hybridize at 42° C. overnight, and processed as described (Abulencia, J. P., et al. 2003. Hegde, P. et al. 2000). Expression ratios were derived using TIGR Spotfinder (Abulencia, J. P. et al. 2003, Hegde, P. et al. 2000). Differentially expressed genes were identified by Significance Analysis of Microarrays, and analyzed with the software TMEV (Abulencia, J. P. et al. 2003).
(§2) Quantitative Real-Time PCR (qRT-PCR) was used to verify DNA microarray data. Incorporation of SYBR Green into PCR products was monitored with the 7900HT detection system.

Row | SMILES | shear-mediated up-regulation of JNK2 mRNA levels | shear-mediated up-regulation of c-Jun mRNA levels
1 | Cc1cccc(Nc2cc(Cl)nc(SCC(=O)O)n2)c1C [Wy14643] | nearly abrogates | nearly abrogates

Tested on: T/C28a2 cells
Experiment: Total glutathione (GSH) levels in shear-activated chondrocytes
Type: cell-based, human
Settings: T/C28a2, high shear (20 dyn/cm^2); SFN 1.25 μM, CAY10404 6.75 μM, NS398 30 μM
Experimental: as §1
(§3) Cell Viability, NQO1 activity, Glutathione levels, and Prostaglandin (PG)E2 production: Cell viability was monitored with the MTT assay (Gao, X. et al. 2001). NQO1 activity and total GSH (oxidized and reduced) levels of cell lysates were determined in 96-well microtiter plates. PGE2 levels were determined in media by the Prostaglandin E2 monoclonal EIA kit (Cayman Chemical).

Row | SMILES | shear-induced suppression of intracellular GSH levels
2 | CS(=O)(=O)c1ccc(-c2noc(C(F)(F)F)c2-c2ccccc2)cc1 [CAY10404] | reduced the shear-induced down-regulation
3 | CS(=O)(=O)Nc1ccc([N+](=O)[O-])cc1OC1CCCCC1 [NS398] | indistinguishable from those with CAY10404
4 | C[S@@+]([O-])CCCCN=C=S [SFN, (−)-1-isothiocyanato-4(R)-(methylsulfinyl)-butane] | abolished

Tested on: T/C28a2 cells
Experiment: Shear-induced apoptosis: DNA fragmentation (TUNEL) and mitochondrial membrane depolarization
Type: cell-based, human
Settings: 20 dyn/cm^2, 48 h; D3T 5 μM, CAY10404 6.75 μM, NS398 30 μM
Experimental: as §1
DNA Fragmentation and Mitochondrial Depolarization: For DNA fragmentation, cells were fixed in 4% paraformaldehyde for 1 hour at 25° C., washed 2× in PBS, and permeabilized briefly in 0.1% Triton-X100/0.1% sodium citrate on ice. Subsequently, cells were washed 2× in PBS, labeled using the In Situ Cell Death Kit (Roche), and analyzed by flow cytometry. To quantify Mitochondrial Membrane Potential (MMP), cells were labeled using the MitoProbe JC-I Kit (Molecular Probes).

Row | SMILES | shear-induced apoptosis (DNA fragmentation TUNEL, mitochondrial membrane depolarization MMP)
5 | CS(=O)(=O)c1ccc(-c2noc(C(F)(F)F)c2-c2ccccc2)cc1 [CAY10404] | marked reduction
6 | CS(=O)(=O)Nc1ccc([N+](=O)[O-])cc1OC1CCCCC1 [NS398] | marked reduction

Tested on: NQO1
Experiment: NQO1 enzyme activity in shear-activated chondrocytes
Type: cell-based, human
Settings: T/C28a2, high shear (20 dyn/cm^2); SFN 1.25 μM, D3T 5 μM, CAY10404 6.75 μM, NS398 30 μM
Experimental: as §1, §3

Row | SMILES | shear-induced suppression of NQO1 activity
7 | CS(=O)(=O)c1ccc(-c2noc(C(F)(F)F)c2-c2ccccc2)cc1 [CAY10404] | reduced the shear-induced down-regulation
8 | CS(=O)(=O)Nc1ccc([N+](=O)[O-])cc1OC1CCCCC1 [NS398] | indistinguishable from those with CAY10404
9 | C[S@@+]([O-])CCCCN=C=S [SFN, (−)-1-isothiocyanato-4(R)-(methylsulfinyl)-butane] | abolished

Tested on: ARE-driven NQO1 promoter
Experiment: Promoter activity assay (pNQO1/ARE-luc)
Type: cell-based, human
Settings: transfected T/C28a2 cells; SFN 1.25 μM or D3T 5 μM, 24 h, static conditions
Experimental: Transient Transfection and Plasmid Constructs: T/C28a2 cells were transfected with 10 μg of plasmid and 2 μg of control with Lipofectamine and Plus Reagent (Invitrogen). Cells were allowed to recover for 3 hours, incubated overnight in medium containing 1% Nutridoma, and exposed to the indicated treatments. Efficiency was assessed by flow cytometry with pEGFP-N2 (BD Biosciences). pCMV-mNrf2 and pNQO1/ARE-luc constructs were provided by N. Wakabayashi (Wakabayashi, N. et al. 2004). Igarashi, K., et al. 1994), and pBJ M-pl 10*-myc, pBJ M<<pl 10-UR, and pCG pi 10 wt constructs were provided by A. Kippel (Hu, Q., et al. 1995).
Promoter Activity Assay: T/C28a2 cells were transfected with 10 μg of pNQO1/ARE-luc and 1 μg each of pEGFP-N2 and pSV40-hRL2 (Promega) to normalize transfection efficiency. Firefly and Renilla luciferase activities were measured using the Dual-Luciferase Report Assay kit (Promega).

Row | ARE-driven NQO1 promoter luciferase activity | SMILES
10 | increases the luciferase activity | C[S@@+]([O-])CCCCN=C=S [SFN, (−)-1-isothiocyanato-4(R)-(methylsulfinyl)-butane]

Tested on: T/C-28a2 cells
Experiment: qRT-PCR transcript ratios (shear/static) in chondrocytes
Type: cell-based, human
Settings: Wy14643 10 μM pre-treatment; 20 dyn/cm^2, 48 h; mean + range (n = 2)
Experimental: as §1, §2
Cell Culture and shear stress exposure, microarray hybridization and analysis and quantitative real-time PCR (qRT-PCR) were carried out as in example 1. T/C-28a2 chondrocytes were pre-treated with a specific PPARα ligand, Wy14643 (10 μM) for 2 hours before being subjected to a shear stress level of 20 dyn/cm^2 for 48 hours in the presence of Wy14643. This pharmacological intervention abolished the shear-induced down regulation of the mRNA levels of Nrf2 and phase 2 genes and apoptosis as evidenced by the abrogation of shear-mediated changes of Bcl-w and pro-caspase-9 mRNA expression.

Row | SMILES | Bcl-w (Bcl-2-like protein 2) qRT-PCR Transcript Ratio (Shear/Static) | COX-2 (cyclooxygenase-2) qRT-PCR Transcript Ratio (Shear/Static) | Caspase-9 precursor qRT-PCR Transcript Ratio (Shear/Static) | GCLR (glutamate-cysteine ligase) qRT-PCR Transcript Ratio (Shear/Static) | GST μ1 (glutathione-S-transferase class μ1) qRT-PCR Transcript Ratio (Shear/Static) | MMP-9 (matrix metalloproteinase-9) qRT-PCR Transcript Ratio (Shear/Static) | NQO1 (NAD(P)H:quinone oxidoreductase-1) qRT-PCR Transcript Ratio (Shear/Static) | Nrf2 (NF-E2 related factor 2) qRT-PCR Transcript Ratio (Shear/Static) | PGE2 Receptor Subtype EP4 qRT-PCR Transcript Ratio (Shear/Static) | PPARα qRT-PCR Transcript Ratio (Shear/Static)
11 | Cc1cccc(Nc2cc(Cl)nc(SCC(=O)O)n2)c1C [Wy14643] | 1.0 ± 0.1 | 1.3 ± 0.2 | 1.0 ± 0.1 | 1.2 ± 0.2 | 1.3 ± 0.2 | 1.3 ± 0.1 | 1.0 ± 0.1 | 1.6 ± 0.1 | 0.6 ± 0.1 | 1.1 ± 0.2

Same assay, conditions: Wy14643 10 μM pre-treatment; 20 dyn/cm^2, 48 h; mean + range (n = 2)

Row | SMILES | iNOS (inducible Nitric Oxide Synthase II) qRT-PCR Transcript Ratio (Shear/Static)
12 | Cc1cccc(Nc2cc(Cl)nc(SCC(=O)O)n2)c1C [Wy14643] | 1.0 ± 0.2

Same assay, conditions: Wy14643 10 μM, 2 hours before and during 20 dyn/cm^2, 48 hours

Row | SMILES | shear-induced down regulation of the mRNA levels of Nrf2 and phase 2 genes
13 | Cc1cccc(Nc2cc(Cl)nc(SCC(=O)O)n2)c1C [Wy14643] | abolished

Same assay, conditions: Wy14643 10 μM; 20 dyn/cm^2, 48 hours

Row | SMILES | shear-mediated changes of Bcl-w and pro-caspase-9 mRNA expression (apoptosis)
14 | Cc1cccc(Nc2cc(Cl)nc(SCC(=O)O)n2)c1C [Wy14643] | abrogation

Tested on: phase 2 genes
Experiment: not given
Settings: cited from earlier work

Row | SMILES | CD
15 | CS(=O)(=O)[C@H]1CC[C@@H](N=C=S)CC1 [GHF 1073] | 0.44 µM
16 | CSCCCCCN=C=S [GHP 1001] | 1.71 µM
17 | C[S+]([O-])CCCCCN=C=S (stereo not drawn) [GHP 1002] | 0.94 µM
18 | CS(=O)(=O)CCCCCN=C=S [GHP 1003] | 0.98 µM
19 | C[S+]([O-])CCCCN=C=S (stereo not drawn) [GHP 1005] | 0.20 µM
20 | CS(=O)(=O)CCCCN=C=S [GHP 1007] | 0.82 µM
21 | CSCCCN=C=S [GHP 1008] | 3.52 µM
22 | C[S+]([O-])CCCN=C=S (stereo not drawn) [GHP 1009] | 2.36 µM
23 | CS(=O)(=O)CCCN=C=S [GHP 1010] | 1.32 µM
24 | CSCc1ccccc1CN=C=S [GHP 1021] | 4.3 µM
25 | CSc1ccccc1CCN=C=S [GHP 1022] | 7.4 µM
26 | CSCCc1ccccc1N=C=S [GHP 1023] | 100 µM
27 | COc1ccccc1N=C=S [GHP 1031] | 100 µM
28 | S=C=Nc1ccccc1Cl [GHP 1032] | 100 µM
29 | O=CNc1ccc(N=C=S)cc1 [GHP 1033] | 100 µM
30 | COc1ccccc1CN=C=S [GHP 1041] | 2.41 µM
31 | COc1cccc(CN=C=S)c1 [GHP 1042] | 8.65 µM
32 | COc1ccc(CN=C=S)cc1 [GHP 1043] | 25 µM
33 | COc1cccc(OC)c1CN=C=S [GHP 1044] | 5.8 µM
34 | CN(C)c1ccccc1CN=C=S [GHP 1045] | 12.5 µM
35 | CSc1ccccc1CN=C=S [GHP 1046] | 6.8 µM
36 | Fc1ccccc1CN=C=S [GHP 1047] | 13.1 µM
37 | S=C=NCc1ccccc1Cl [GHP 1048] | 14.1 µM
38 | S=C=NCc1ccccc1Br [GHP 1049] | 12.5 µM
39 | Cc1ccccc1CN=C=S [GHP 1050] | 3.7 µM
40 | CCOc1ccccc1CN=C=S [GHP 1051] | 2.5 µM

Row | SMILES | CD
41 | S=C=NC1CCc2ccccc21 (stereo not drawn) [GHP 1052] | 38.9 µM
42 | CCc1ccccc1CN=C=S [GHP 1053] | 12.5 µM
43 | CCOC(=O)CN=C=S [GHP 1061] | 8.2 µM
44 | CS(=O)(=O)C1CC2CC1CC2N=C=S (stereo not drawn) [GHP 1064] | 0.66 µM
45 | CC(=O)C1CC2CC(N=C=S)C1C2 (stereo not drawn) [GHP 1066] | 0.26 µM
46 | CC(=O)C1CC2CC1CC2N=C=S (stereo not drawn) [GHP 1067] | 0.43 µM
47 | CS(=O)(=O)C1CC2CC(N=C=S)C1C2 (stereo not drawn) [GHP 1068] | 0.15 µM
48 | COC(=O)C1CC2CC(N=C=S)C1C2 (stereo not drawn) [GHP 1069] | 0.68 µM
49 | COC(=O)C1CC2CC(N=C=S)C1C2 (stereo not drawn) [GHP 1070] | 1.6 µM
50 | N#CC1CC2CC1CC2N=C=S (stereo not drawn) [GHP 1071] | 0.59 µM
51 | O=[N+]([O-])C1CC2CC1CC2N=C=S (stereo not drawn) [GHP 1072] | 1.05 µM
52 | CCOC(=O)C(CCSC)N=C=S (stereo not drawn) [GHP 1074] | 2.64 µM
53 | CC(O)C1CC2CC1CC2N=C=S (stereo not drawn) [GHP 1075] | 0.45 µM
54 | OC1CC2CC(N=C=S)C1C2 (stereo not drawn) [GHP 1076] | 1.10 µM
55 | OC1CC2CC1CC2N=C=S (stereo not drawn) [GHP 1077] | 1.85 µM
56 | CP(C)(=O)CCCCN=C=S [GHP 1078] | 0.43 µM
57 | CS(=O)(=O)[C@H]1CCC[C@H](CN=C=S)C1 [GHP 1079] | 0.48 µM
58 | CS(=O)(=O)[C@H]1CCC[C@@H](CN=C=S)C1 [GHP 1080] | 0.41 µM
59 | CCCCC(=O)CCCCN=C=S [GHP 1081] | 2.0 µM
60 | N#CCCCCN=C=S [GHP 1101] | 1.97 µM
61 | COC(=O)CCCCN=C=S [GHP 1102] | 2.81 µM
62 | O=C(O)CCCCN=C=S [GHP 1103] | 2.19 µM
63 | CSC(=O)CCCCN=C=S [GHP 1104] | 2.8 µM
64 | CC(=O)CCCCN=C=S [GHP 1105] | 0.23 µM
65 | CC(O)CCCCN=C=S (stereo not drawn) [GHP 1106] | 0.35 µM
